Consider 15 compounds from patent US20250145665A1, “MACROCYCLIC PEPTIDES USEFUL AS MODULATORS OF TNF ALPHA” (Bristol-Myers Squibb Company, priority 2023, published 2025).

Molecules are shown by their SMILES. Starred links: 1 amine or outer side, 2 acyl side, 3 side chain; linkers in the order of their positions; H or OH if unused. Positions of bridges follow the written chain, without caps; N, C: chain ends. Non-standard residues stand in square brackets, D forms with d. Residues, ends and D or L forms follow the SMILES beside them. *: point of attachment. Bip(4'-NHBz) = N[C@@H](Cc1ccc(-c2ccc(NC(=O)c3ccccc3)cc2)cc1)C(=O)O; Bip(4'-NH) = O=C([C@H](Cc1ccc(-c2ccc(N[*:3])cc2)cc1)N[*:1])[*:2]; dArg(ω-Bn(3-CH2OH)) = N=C(NCCC[C@@H](N)C(=O)O)NCc1cccc(CO)c1; Indazole3carbonyl(1-CH2COOH) = O=C(O)Cn1nc(C(=O)*)c2ccccc21; Bip(4'-COOH) = N[C@@H](Cc1ccc(-c2ccc(C(=O)O)cc2)cc1)C(=O)O; Bip(4'-NHAc) = CC(=O)Nc1ccc(-c2ccc(C[C@H](N)C(=O)O)cc2)cc1; X23 = N=C(N)Nc1ccc(CNC(=N)NCCC[C@@H](N[*:1])C(=O)[*:2])cc1; X28 = N=C(NCCC[C@@H](N[*:1])C(=O)[*:2])NCc1ccc(CN)cc1; X69 = N=C(NCCC[C@@H](N[*:1])C(=O)[*:2])NCc1cccc(N)c1; Ala(morpholin-4-yl) = N[C@@H](CN1CCOCC1)C(=O)O; Benzoyl(4-OCH2COOH) = O=C(O)COc1ccc(C(=O)*)cc1; Phe(3-CONH2) = NC(=O)c1cccc(C[C@H](N)C(=O)O)c1; Bip = N[C@@H](Cc1ccc(-c2ccccc2)cc1)C(=O)O; Tiq1c(1S) = O=C(O)[C@H]1NCCc2ccccc21; Hyp = O=C(O)[C@@H]1C[C@@H](O)CN1; 2Pal = N[C@@H](Cc1ccccn1)C(=O)O; 4Pal = N[C@@H](Cc1ccncc1)C(=O)O; Tic = O=C(O)[C@@H]1Cc2ccccc2CN1; 2Thi = N[C@@H](Cc1cccs1)C(=O)O; Cha = N[C@@H](CC1CCCCC1)C(=O)O; Chg = N[C@H](C(=O)O)C1CCCCC1; Tle = CC(C)(C)[C@H](N)C(=O)O; Sar = CNCC(=O)O

As a reminder, the IC50 is the concentration that inhibits the measured activity by half.

Chain of TNFα (P01375 77-233 limits assumed): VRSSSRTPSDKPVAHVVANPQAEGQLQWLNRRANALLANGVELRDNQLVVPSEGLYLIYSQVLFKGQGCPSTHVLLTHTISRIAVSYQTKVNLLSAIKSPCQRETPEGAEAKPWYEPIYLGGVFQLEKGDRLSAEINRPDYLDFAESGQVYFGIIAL

One assay addresses TNFα (Homo sapiens, UniProt P01375). Description: TNF-Induced HEK-Blue Assay. Type of assay: cell-based.
Details: not given
As for `CC[C@H](C)[C@@H]1NC(=O)[C@@H](CCCNC(=N)N)NC(=O)[C@H](CC(=O)O)NC(=O)[C@H](Cc2cnc[nH]2)NC(=O)CN(C)C(=O)[C@H](Cc2ccc(-c3ccc(NC(=O)c4ccccc4)cc3)cc2)NC(=O)[C@H](Cc2ccc(-c3ccc(C(=O)O)cc3)cc2)NC(=O)[C@H](CC2CCCCC2)NC(=O)CSC[C@@H](C(=O)NCC(N)=O)NC(=O)[C@H](CC(C)C)NC(=O)[C@H](Cc2cnc[nH]2)NC(=O)[C@H](C(C)C)NC(=O)[C@@H]2c3ccccc3CCN2C1=O` [Example 373] ({CH2CO}-[Cha][Bip(4'-COOH)][Bip(4'-NHBz)][Sar]HD[dR]I[Tiq1c(1S)]VHLCG-NH2; thioether N-13), the IC50 was < 50 nM.

For the compound `CC(C)C[C@@H]1NC(=O)[C@H](CCCNC(=N)N)NC(=O)[C@H](C(C)C)NC(=O)[C@@H]2CCCN2C(=O)[C@H](C(C)C)NC(=O)[C@@H](CCCNC(=N)NCc2ccc(CN)cc2)NC(=O)[C@H](CC(=O)O)NC(=O)[C@@H]2CCCN2C(=O)CN(C)C(=O)[C@H](Cc2ccc(-c3ccc(NC(=O)c4nn(CC(=O)O)c5ccccc45)cc3)cc2)NC(=O)[C@H](Cc2ccc(-c3ccccc3)cc2)NC(=O)[C@H](CN2CCOCC2)NC(=O)CSC[C@@H](C(=O)NCC(N)=O)NC1=O` [Example 501] ({CH2CO}-[Ala(morpholin-4-yl)][Bip][Bip(4'-NH)](Indazole3carbonyl(1-CH2COOH))[Sar]PD[X28]VPVRLCG-NH2; thioether N-13), the IC50 was in the range of 50 to 200 nM.

The compound `CC(C)C[C@@H]1NC(=O)[C@H](CCCNC(=N)N)NC(=O)[C@H](C(C)C)NC(=O)[C@@H]2CCCN2C(=O)[C@H](C(C)C)NC(=O)[C@@H](CCCNC(=N)NCc2ccc(NC(=N)N)cc2)NC(=O)[C@H](CC(=O)O)NC(=O)[C@@H]2CCCN2C(=O)CN(C)C(=O)[C@H](Cc2ccc(-c3ccc(NC(=O)c4nn(CC(=O)O)c5ccccc45)cc3)cc2)NC(=O)[C@H](Cc2ccc(-c3ccccc3)cc2)NC(=O)[C@H](CN2CCOCC2)NC(=O)CSC[C@@H](C(=O)NCC(N)=O)NC1=O` [Example 432] ({CH2CO}-[Ala(morpholin-4-yl)][Bip][Bip(4'-NH)](Indazole3carbonyl(1-CH2COOH))[Sar]PD[X23]VPVRLCG-NH2; thioether N-13) showed an IC50 of 50 to 200 nM.

`CC(C)C[C@@H]1NC(=O)[C@H](CCCNC(=N)N)NC(=O)[C@H](C(C)C)NC(=O)[C@@H]2CCCN2C(=O)[C@H](C(C)C)NC(=O)[C@@H](CCCNC(=N)NCc2cccc(N)c2)NC(=O)[C@H](CC(=O)O)NC(=O)[C@@H]2CCCN2C(=O)CN(C)C(=O)[C@H](Cc2ccc(-c3ccc(NC(=O)c4nn(CC(=O)O)c5ccccc45)cc3)cc2)NC(=O)[C@H](Cc2ccc(-c3ccccc3)cc2)NC(=O)[C@H](CN2CCOCC2)NC(=O)CSC[C@@H](C(=O)NCC(N)=O)NC1=O` [Example 636] ({CH2CO}-[Ala(morpholin-4-yl)][Bip][Bip(4'-NH)](Indazole3carbonyl(1-CH2COOH))[Sar]PD[X69]VPVRLCG-NH2; thioether N-13): the IC50 is < 50 nM.

The assay is the same for the next values; noted with them: HEK-Blue-CD40L cells, NF-kB-driven secreted alkaline phosphatase reporter; TNFα 0.5 ng/ml; 18 h; read-out: TNF induced HEK-Blue assay IC50 value.
Take `CC(=O)Nc1ccc(-c2ccc(C[C@@H]3NC(=O)[C@H](Cc4ccc(-c5ccccc5)cc4)NC(=O)[C@H](CC4CCCCC4)NC(=O)CSC[C@@H](C(=O)NCC(N)=O)NC(=O)[C@H](CC(C)C)NC(=O)[C@H](Cc4cnc[nH]4)NC(=O)[C@H](C4CCCCC4)NC(=O)[C@@H]4CCCN4C(=O)[C@H](CC(N)=O)NC(=O)[C@@H](CCCNC(=N)N)NC(=O)[C@H](CC(=O)O)NC(=O)[C@H](Cc4cnc[nH]4)NC(=O)CN(C)C3=O)cc2)cc1` [Example 301] ({CH2CO}-[Cha][Bip][Bip(4'-NHAc)][Sar]HD[dR]NP[Chg]HLCG-NH2; thioether N-13): the IC50 is 50 to 200 nM.

In the case of `CC(C)C[C@@H]1NC(=O)[C@H](CCCNC(=N)N)NC(=O)[C@H](C(C)C)NC(=O)[C@@H]2C[C@@H](O)CN2C(=O)[C@H](C(C)C)NC(=O)[C@H](CCCNC(=N)N)NC(=O)[C@H](CC(=O)O)NC(=O)[C@@H]2CCCN2C(=O)CN(C)C(=O)[C@H](Cc2ccc(-c3ccccc3)cc2)NC(=O)[C@H](Cc2ccc(-c3ccccc3)cc2)NC(=O)[C@H](Cc2ccccc2)NC(=O)CSC[C@@H](C(=O)NCC(N)=O)NC1=O` [Example 39] ({CH2CO}-F[Bip][Bip][Sar]PDRV[Hyp]VRLCG-NH2; thioether N-13), the IC50 fell in the range of 200 to 2000 nM.

With `CC(=O)Nc1ccc(-c2ccc(C[C@@H]3NC(=O)[C@H](Cc4ccc(-c5ccccc5)cc4)NC(=O)[C@H](CN4CCOCC4)NC(=O)CSC[C@@H](C(=O)NCC(N)=O)NC(=O)[C@H](CC(C)C)NC(=O)[C@H](Cc4ccccc4)NC(=O)[C@H](C(C)C)NC(=O)[C@@H]4CCCN4C(=O)[C@H](C(C)C)NC(=O)[C@@H](CCCNC(=N)N)NC(=O)[C@H](CC(=O)O)NC(=O)[C@H](Cc4ccccn4)NC(=O)CN(C)C3=O)cc2)cc1` [Example 227] ({CH2CO}-[Ala(morpholin-4-yl)][Bip][Bip(4'-NHAc)][Sar][2Pal]D[dR]VPVFLCG-NH2; thioether N-13), the IC50 lay in the range of 50 to 200 nM.

For the compound `CC(=O)Nc1ccc(-c2ccc(C[C@@H]3NC(=O)[C@H](Cc4ccc(-c5ccc(C(=O)O)cc5)cc4)NC(=O)[C@H](CN4CCOCC4)NC(=O)CSC[C@@H](C(=O)NCC(N)=O)NC(=O)[C@H](CC(C)C)NC(=O)[C@H](Cc4ccc(O)cc4)NC(=O)[C@H](C(C)C)NC(=O)[C@@H]4CCCN4C(=O)[C@H](C(C)C)NC(=O)[C@@H](CCCNC(=N)N)NC(=O)[C@H](CC(=O)O)NC(=O)[C@H](Cc4ccc(O)cc4)NC(=O)CN(C)C3=O)cc2)cc1` [Example 164] ({CH2CO}-[Ala(morpholin-4-yl)][Bip(4'-COOH)][Bip(4'-NHAc)][Sar]YD[dR]VPVYLCG-NH2; thioether N-13), the IC50 is < 50 nM.

Take `CC(C)C[C@@H]1NC(=O)[C@H](Cc2ccc(O)cc2)NC(=O)[C@H](C(C)C)NC(=O)[C@@H]2Cc3ccccc3CN2C(=O)[C@H](C(C)C)NC(=O)[C@@H](CCCNC(=N)N)NC(=O)[C@H](CC(=O)O)NC(=O)[C@H](Cc2ccc(O)cc2)NC(=O)CN(C)C(=O)[C@H](Cc2ccc(-c3ccccc3)cc2)NC(=O)[C@H](Cc2ccc(-c3ccc(C(=O)O)cc3)cc2)NC(=O)[C@H](CN2CCOCC2)NC(=O)CSC[C@@H](C(=O)NCC(N)=O)NC1=O` [Example 148] ({CH2CO}-[Ala(morpholin-4-yl)][Bip(4'-COOH)][Bip][Sar]YD[dR]V[Tic]VYLCG-NH2; thioether N-13): the IC50 is < 50 nM.

On to `CC(C)C[C@@H]1NC(=O)[C@H](CCCNC(=N)N)NC(=O)[C@H](C(C)C)NC(=O)[C@@H]2CCCN2C(=O)[C@H](Cc2ccncc2)NC(=O)[C@H](CCCNC(=N)N)NC(=O)[C@H](CC(=O)O)NC(=O)[C@@H]2CCCN2C(=O)CN(C)C(=O)[C@H](Cc2ccc(-c3ccccc3)cc2)NC(=O)[C@H](Cc2ccc(-c3ccccc3)cc2)NC(=O)[C@H](Cc2ccccc2)NC(=O)CSC[C@@H](C(=O)NCC(N)=O)NC1=O` [Example 25] ({CH2CO}-F[Bip][Bip][Sar]PDR[4Pal]PVRLCG-NH2; thioether N-13), for which the IC50 lay within 200 to 2000 nM.

For the compound `CC(=O)Nc1ccc(-c2ccc(C[C@@H]3NC(=O)[C@H](Cc4ccc(-c5ccccc5)cc4)NC(=O)[C@H](CN4CCOCC4)NC(=O)CSC[C@@H](C(=O)NCC(N)=O)NC(=O)[C@H](CC(C)C)NC(=O)[C@H](CCCNC(=N)N)NC(=O)[C@H](C4CCCCC4)NC(=O)[C@@H]4CCCN4C(=O)[C@H](C(C)C)NC(=O)[C@@H](CCCNC(=N)N)NC(=O)[C@H](CC(=O)O)NC(=O)[C@H](Cc4ccccn4)NC(=O)CN(C)C3=O)cc2)cc1` [Example 201] ({CH2CO}-[Ala(morpholin-4-yl)][Bip][Bip(4'-NHAc)][Sar][2Pal]D[dR]VP[Chg]RLCG-NH2; thioether N-13), the IC50 is < 50 nM.

`CC[C@H](C)[C@@H]1NC(=O)[C@@H](CCCNC(=N)N)NC(=O)[C@H](CC(=O)O)NC(=O)[C@H](Cc2ccc(O)cc2)NC(=O)CN(C)C(=O)[C@H](Cc2ccc(-c3ccc(NC(C)=O)cc3)cc2)NC(=O)[C@H](Cc2ccc(-c3ccccc3)cc2)NC(=O)[C@H](C(C)(C)C)NC(=O)CSC[C@@H](C(=O)NCC(N)=O)NC(=O)[C@H](CC(C)C)NC(=O)[C@H](Cc2cccs2)NC(=O)[C@H](C(C)C)NC(=O)[C@@H]2CCCN2C1=O` [Example 260] ({CH2CO}-[Tle][Bip][Bip(4'-NHAc)][Sar]YD[dR]IPV[2Thi]LCG-NH2; thioether N-13): the IC50 was < 50 nM.

In the case of `CC(=O)Nc1ccc(-c2ccc(C[C@@H]3NC(=O)[C@H](Cc4ccc(-c5ccccc5)cc4)NC(=O)[C@H](C(C)(C)C)NC(=O)CSC[C@@H](C(=O)NCC(N)=O)NC(=O)[C@H](CC(C)C)NC(=O)[C@H](Cc4cccs4)NC(=O)[C@H](C(C)C)NC(=O)[C@@H]4CCCN4C(=O)[C@H](C(C)C)NC(=O)[C@@H](CCCNC(=N)N)NC(=O)[C@H](CC(=O)O)NC(=O)[C@H](Cc4ccccn4)NC(=O)CN(C)C3=O)cc2)cc1` [Example 605] ({CH2CO}-[Tle][Bip][Bip(4'-NHAc)][Sar][2Pal]D[dR]VPV[2Thi]LCG-NH2; thioether N-13), the IC50 lay in the range of 200 to 2000 nM.

Take `CC(=O)Nc1ccc(-c2ccc(C[C@@H]3NC(=O)[C@H](Cc4ccc(-c5ccc(C(=O)O)cc5)cc4)NC(=O)[C@H](CN4CCOCC4)NC(=O)CSC[C@@H](C(=O)NCC(N)=O)NC(=O)[C@H](CC(C)C)NC(=O)[C@H](Cc4cccc(C(N)=O)c4)NC(=O)[C@H](C(C)C)NC(=O)[C@@H]4CCCN4C(=O)[C@H](C(C)C)NC(=O)[C@@H](CCCNC(=N)N)NC(=O)[C@H](CC(=O)O)NC(=O)[C@H](Cc4ccc(O)cc4)NC(=O)CN(C)C3=O)cc2)cc1` [Example 457] ({CH2CO}-[Ala(morpholin-4-yl)][Bip(4'-COOH)][Bip(4'-NHAc)][Sar]YD[dR]VPV[Phe(3-CONH2)]LCG-NH2; thioether N-13): the IC50 is < 50 nM.

For `CC(C)C[C@@H]1NC(=O)[C@H](CCCNC(=N)N)NC(=O)[C@H](C(C)C)NC(=O)[C@@H]2CCCN2C(=O)[C@H](C(C)C)NC(=O)[C@@H](CCCNC(=N)NCc2cccc(CO)c2)NC(=O)[C@H](CC(=O)O)NC(=O)[C@@H]2CCCN2C(=O)CN(C)C(=O)[C@H](Cc2ccc(-c3ccc(NC(=O)c4ccc(OCC(=O)O)cc4)cc3)cc2)NC(=O)[C@H](Cc2ccc(-c3ccccc3)cc2)NC(=O)[C@H](CN2CCOCC2)NC(=O)CSC[C@@H](C(=O)NCC(N)=O)NC1=O` [Example 500] ({CH2CO}-[Ala(morpholin-4-yl)][Bip][Bip(4'-NH)](Benzoyl(4-OCH2COOH))[Sar]PD[dArg(ω-Bn(3-CH2OH))]VPVRLCG-NH2; thioether N-13), the IC50 was < 50 nM.
